Experimental data as given in patent US5075289A, “9-R-azacyclic erythromycin antibiotics” (priority 1988, dated 1991).
Converted amounts (≈) assume the structure as drawn. Like-named read-outs stand apart in the source and are kept apart here.

Tests used:
Type in all cases: cell-based
[1] = system: Enterococcus faecium ATCC 8043; test: In vitro antibacterial activity, agar dilution MIC; conditions: ATCC8043
Method: (§1) The antimicrobial spectra of a number of compounds of the invention were tested by the following method:
(§2) Twelve petri dishes containing successive aqueous dilutions of the test compound mixed with 10 ml of sterilized Brain Heart Infusion agar (Difco 0418-01-5) are prepared. Each plate is inoculated with 1:100 (or 1:10 for slow growing strains, primarily Micrococcus and Streptococcus) dilutions of up to 32 different microorganisms, using a Steers replicator block The inoculated plates are incubated at 35°-37° C. for 20-24 hours. In addition, a control plate, using BHI agar containing no test compound, is prepared and incubated at the beginning and end of each test.
(§3) An additional plate containing a compound having known susceptibility patterns for the organisms being tested and belonging to the same antibiotic class as the test compound is also prepared and incubated as a further control, as well as to provide test-to-test comparability. Erythromycin A was used for this purpose.
(§4) After incubation, each disk is read. The MIC is defined as the lowest concentration of drug yielding no growth, a slight haze, or sparsely isolated colonies on the inoculum spot as compared to the growth control.

Escherichia coli DC-2 = test: In vitro antibacterial activity, agar dilution MIC; conditions: DC2
Method: as §1, §2, §3, §4

Escherichia coli H560 = test: In vitro antibacterial activity, agar dilution MIC; conditions: E. coli H560, Brain Heart Infusion agar, 20-24 hours, read-out: MIC
Method: as §1, §2, §3, §4

Escherichia coli Juhl = test: In vitro antibacterial activity, agar dilution MIC
Method: as §1, §2, §3, §4

Escherichia coli SS = test: In vitro antibacterial activity, agar dilution MIC; conditions: read-out: MIC
Method: as §1, §2, §3, §4

[2] = system: Haemophilus influenzae 1177; test: In vitro antibacterial activity, agar dilution MIC; conditions: H. influenzae 1177
Method: as §1, §2, §3, §4

[3] = system: Haemophilus influenzae 1435; test: In vitro antibacterial activity, agar dilution MIC; conditions: H. influenzae 1435
Method: as §1, §2, §3, §4

[4] = system: Haemophilus influenzae 503B; test: In vitro antibacterial activity, agar dilution MIC; conditions: H. influenzae 503B
Method: as §1, §2, §3, §4

[5] = system: Haemophilus influenzae 504; test: In vitro antibacterial activity, agar dilution MIC; conditions: H. influenzae 504
Method: as §1, §2, §3, §4

[6] = system: Haemophilus influenzae 519A; test: In vitro antibacterial activity, agar dilution MIC; conditions: H. influenzae 519A
Method: as §1, §2, §3, §4

[7] = system: Haemophilus influenzae 566A; test: In vitro antibacterial activity, agar dilution MIC; conditions: H. influenzae 566A
Method: as §1, §2, §3, §4

[8] = system: Haemophilus influenzae 588A; test: In vitro antibacterial activity, agar dilution MIC; conditions: H. influenzae 588A
Method: as §1, §2, §3, §4

[9] = system: Haemophilus influenzae 632A; test: In vitro antibacterial activity, agar dilution MIC; conditions: H. influenzae 632A
Method: as §1, §2, §3, §4

[10] = system: Haemophilus influenzae 667A; test: In vitro antibacterial activity, agar dilution MIC; conditions: H. influenzae 667A
Method: as §1, §2, §3, §4

[11] = system: Haemophilus influenzae 747C; test: In vitro antibacterial activity, agar dilution MIC; conditions: H. influenzae 747C
Method: as §1, §2, §3, §4

[12] = system: Haemophilus influenzae 751; test: In vitro antibacterial activity, agar dilution MIC; conditions: H. influenzae 751
Method: as §1, §2, §3, §4

[13] = system: Haemophilus influenzae ATCC 10211; test: In vitro antibacterial activity, agar dilution MIC; conditions: ATCC10211, H. influenzae ATCC 10211
Method: as §1, §2, §3, §4

[14] = system: Haemophilus influenzae ATCC 19418; test: In vitro antibacterial activity, agar dilution MIC; conditions: ATCC19418, H. influenzae ATCC 19418
Method: as §1, §2, §3, §4

[15] = system: Haemophilus influenzae ATCC 9795; test: In vitro antibacterial activity, agar dilution MIC; conditions: ATCC9795, H. influenzae ATCC 9795
Method: as §1, §2, §3, §4

[16] = system: Haemophilus influenzae DILL AMP R; test: In vitro antibacterial activity, agar dilution MIC; conditions: H. influenzae DILL AMP R
Method: as §1, §2, §3, §4

[17] = system: Haemophilus influenzae SOL AMP R; test: In vitro antibacterial activity, agar dilution MIC; conditions: H. influenzae SOL AMP R
Method: as §1, §2, §3, §4

[18] = system: Haemophilus influenzae SPK AMP R; test: In vitro antibacterial activity, agar dilution MIC; conditions: H. influenzae SPK AMP R
Method: as §1, §2, §3, §4

[19] = system: Micrococcus luteus ATCC 4698; test: In vitro antibacterial activity, agar dilution MIC; conditions: ATCC4698, read-out: MIC
Method: as §1, §2, §3, §4

[20] = system: Micrococcus luteus ATCC 9341; test: In vitro antibacterial activity, agar dilution MIC; conditions: ATCC9341, M. luteus ATCC 9341, Brain Heart Infusion agar, 20-24 hours, read-out: MIC
Method: as §1, §2, §3, §4

Staphylococcus aureus 45 = test: In vitro antibacterial activity, agar dilution MIC; conditions: S. aureus 45, Brain Heart Infusion agar, 20-24 hours, read-out: MIC
Method: as §1, §2, §3, §4

[21] = system: Staphylococcus aureus 642A; test: In vitro antibacterial activity, agar dilution MIC; conditions: S. aureus 642A, Brain Heart Infusion agar, 20-24 hours, read-out: MIC
Method: as §1, §2, §3, §4

[22] = system: Staphylococcus aureus A5177; test: In vitro antibacterial activity, agar dilution MIC; conditions: S. aureus A5177, Brain Heart Infusion agar, 20-24 hours, read-out: MIC
Method: as §1, §2, §3, §4

[23] = system: Staphylococcus aureus ATCC 6538P; test: In vitro antibacterial activity, agar dilution MIC; conditions: ATCC6538P
Method: as §1, §2, §3, §4

[24] = system: Staphylococcus aureus CMX 553; test: In vitro antibacterial activity, agar dilution MIC; conditions: CMX553, S. aureus CMX 553, Brain Heart Infusion agar, 20-24 hours, read-out: MIC
Method: as §1, §2, §3, §4

[25] = system: Staphylococcus aureus NCTC 10649; test: In vitro antibacterial activity, agar dilution MIC; conditions: NCTC10649, S. aureus NCTC 10649, Brain Heart Infusion agar, 20-24 hours, read-out: MIC
Method: as §1, §2, §3, §4

[26] = system: Staphylococcus epidermidis 3519; test: In vitro antibacterial activity, agar dilution MIC; conditions: S. epidermidis 3519, Brain Heart Infusion agar, 20-24 hours, read-out: MIC
Method: as §1, §2, §3, §4

[27] = system: Streptococcus agalactiae CMX 508; test: In vitro antibacterial activity, agar dilution MIC; conditions: CMX508, S. agalactiae CMX 508, Brain Heart Infusion agar, 20-24 hours, read-out: MIC
Method: as §1, §2, §3, §4

[28] = system: Streptococcus bovis A5169; test: In vitro antibacterial activity, agar dilution MIC; conditions: read-out: MIC
Method: as §1, §2, §3, §4

[29] = system: Streptococcus pyogenes 2548 INDUC; test: In vitro antibacterial activity, agar dilution MIC
Method: as §1, §2, §3, §4

[30] = system: Streptococcus pyogenes 930 CONST; test: In vitro antibacterial activity, agar dilution MIC; conditions: 930CONST
Method: as §1, §2, §3, §4

[31] = system: Streptococcus pyogenes EES61; test: In vitro antibacterial activity, agar dilution MIC; conditions: S. pyogenes EES61, Brain Heart Infusion agar, 20-24 hours, read-out: MIC
Method: as §1, §2, §3, §4

[32] = system: Staphylococcus aureus 45 RAR 2; test: microbe, parasite or virus in culture; conditions: 45RAR2
Method: as §1, §2, §3, §4

Structure (SMILES): CC[C@H]1OC(=O)[C@H](C)[C@@H](O[C@H]2C[C@@](C)(OC)[C@@H](O)[C@H](C)O2)[C@H](C)[C@@H](O[C@@H]2O[C@H](C)C[C@H](N(C)C)[C@H]2O)[C@](C)(O)C[C@@H](C)[C@@H](N2CCC(C)CC2)[C@H](C)[C@@H](O)[C@]1(C)O [Example 6]
- MIC [1]: 0.1 µg/mL (≈ 0.122 µM)
- MIC (Escherichia coli DC-2): 25 µg/mL (≈ 30.6 µM)
- MIC (Escherichia coli H560): 3.1 µg/mL (≈ 3.79 µM)
- MIC (Escherichia coli Juhl): 12.5 µg/mL (≈ 15.3 µM)
- MIC (Escherichia coli SS): 0.2 µg/mL (≈ 0.245 µM)
- MIC [2]: 0.25 µg/mL (≈ 0.306 µM)
- MIC [3]: 1 µg/mL (≈ 1.22 µM)
- MIC [4]: 1 µg/mL (≈ 1.22 µM)
- MIC [5]: 1 µg/mL (≈ 1.22 µM)
- MIC [6]: 0.5 µg/mL (≈ 0.612 µM)
- MIC [7]: 2 µg/mL (≈ 2.45 µM)
- MIC [8]: 1 µg/mL (≈ 1.22 µM)
- MIC [9]: 1 µg/mL (≈ 1.22 µM)
- MIC [10]: 2 µg/mL (≈ 2.45 µM)
- MIC [11]: 1 µg/mL (≈ 1.22 µM)
- MIC [12]: 1 µg/mL (≈ 1.22 µM)
- MIC [13]: 1 µg/mL (≈ 1.22 µM)
- MIC [14]: 2 µg/mL (≈ 2.45 µM)
- MIC [15]: 1 µg/mL (≈ 1.22 µM)
- MIC [16]: 1 µg/mL (≈ 1.22 µM)
- MIC [17]: 1 µg/mL (≈ 1.22 µM)
- MIC [18]: 1 µg/mL (≈ 1.22 µM)
- MIC [19]: 0.2 µg/mL (≈ 0.245 µM)
- MIC [20]: 0.05 µg/mL (≈ 0.0612 µM)
- MIC (Staphylococcus aureus 45): 0.2 µg/mL (≈ 0.245 µM)
- MIC [21]: 0.39 µg/mL (≈ 0.477 µM)
- MIC [22]: 3.1 µg/mL (≈ 3.79 µM)
- MIC [23]: 0.39 µg/mL (≈ 0.477 µM)
- MIC [24]: 0.39 µg/mL (≈ 0.477 µM)
- MIC [25]: 0.78 µg/mL (≈ 0.955 µM)
- MIC [26]: 0.39 µg/mL (≈ 0.477 µM)
- MIC [27]: 0.1 µg/mL (≈ 0.122 µM)
- MIC [28]: 0.02 µg/mL (≈ 0.0245 µM)
- MIC ([29]; 2548INDUC): 3.1 µg/mL (≈ 3.79 µM)
- MIC [30]: > 100 µg/mL
- MIC [31]: 0.1 µg/mL (≈ 0.122 µM)
- MIC [32]: 0.78 µg/mL (≈ 0.955 µM)

Structure (SMILES): CC[C@H]1OC(=O)[C@H](C)[C@@H](O[C@H]2C[C@@](C)(OC)[C@@H](O)[C@H](C)O2)[C@H](C)[C@@H](O[C@@H]2O[C@H](C)C[C@H](N(C)C)[C@H]2O)[C@](C)(O)C[C@@H](C)[C@@H](N2CCC(C)(C)CC2)[C@H](C)[C@@H](O)[C@]1(C)O [Example 7]
- MIC [1]: 0.1 µg/mL (≈ 0.12 µM)
- MIC (Escherichia coli DC-2): 12.5 µg/mL (≈ 15 µM)
- MIC (Escherichia coli H560): 3.1 µg/mL (≈ 3.73 µM)
- MIC (Escherichia coli Juhl): 12.5 µg/mL (≈ 15 µM)
- MIC (Escherichia coli SS): 0.2 µg/mL (≈ 0.241 µM)
- MIC [2]: 0.25 µg/mL (≈ 0.301 µM)
- MIC [3]: 0.5 µg/mL (≈ 0.602 µM)
- MIC [4]: 1 µg/mL (≈ 1.2 µM)
- MIC [5]: 1 µg/mL (≈ 1.2 µM)
- MIC [6]: 0.5 µg/mL (≈ 0.602 µM)
- MIC [7]: 2 µg/mL (≈ 2.41 µM)
- MIC [8]: 1 µg/mL (≈ 1.2 µM)
- MIC [9]: 1 µg/mL (≈ 1.2 µM)
- MIC [10]: 1 µg/mL (≈ 1.2 µM)
- MIC [11]: 1 µg/mL (≈ 1.2 µM)
- MIC [12]: 1 µg/mL (≈ 1.2 µM)
- MIC [13]: 1 µg/mL (≈ 1.2 µM)
- MIC [14]: 2 µg/mL (≈ 2.41 µM)
- MIC [15]: 1 µg/mL (≈ 1.2 µM)
- MIC [16]: 1 µg/mL (≈ 1.2 µM)
- MIC [17]: 0.5 µg/mL (≈ 0.602 µM)
- MIC [18]: 1 µg/mL (≈ 1.2 µM)
- MIC [19]: 0.2 µg/mL (≈ 0.241 µM)
- MIC [20]: ≤ 0.05 µg/mL
- MIC (Staphylococcus aureus 45): 0.2 µg/mL (≈ 0.241 µM)
- MIC [21]: 0.39 µg/mL (≈ 0.469 µM)
- MIC [22]: 3.1 µg/mL (≈ 3.73 µM)
- MIC [23]: 0.39 µg/mL (≈ 0.469 µM)
- MIC [24]: 0.39 µg/mL (≈ 0.469 µM)
- MIC [25]: 0.39 µg/mL (≈ 0.469 µM)
- MIC [26]: 0.39 µg/mL (≈ 0.469 µM)
- MIC [27]: ≤ 0.05 µg/mL
- MIC ([28]; S. bovis A5169, Brain Heart Infusion agar, 20-24 hours): ≤ 0.05 µg/mL
- MIC ([29]; S. pyogenes 2548 INDUC, Brain Heart Infusion agar, 20-24 hours, read-out: MIC): 6.2 µg/mL (≈ 7.46 µM)
- MIC [30]: > 100 µg/mL
- MIC [31]: 0.1 µg/mL (≈ 0.12 µM)
- MIC [32]: 0.39 µg/mL (≈ 0.469 µM)
